According to patent US20250041264A1, “METHOD FOR TREATING DIABETES BY USING ANTRODIA CAMPHORATA COMPOUND” (Lantyng Biotechnology Corp., priority 2023, published 2025):
“Also recorded” adds a separate entry of the source.

How the values were obtained:
Type 2 Diabetic Mice [1] = assay: Low-density lipoprotein (LDL) detection; type: in vivo, mice C57BL/6JNarl; settings: HFD+5 group (SY1 5 mg/kg) compared with Western medicine group and HFD+10
Type 2 Diabetic Mice [2] = assay: ALT and AST biochemical analysis in blood (liver function); type: in vivo; settings: later stage of treatment (4 weeks), Hitachi 7080 blood biochemical analyzer
Description: Mice were adapted to feed water and food arbitrarily every week, and after one week, they were fed in groups from the commercial feed 1320 (containing 11% fat) purchased from EJOY2 CORP. (New Taipei City, Taiwan) and D12451 (containing 45% high-fat feed) purchased from MEDGENE CO., LTD. (Taichung, Taiwan), induced for 12 weeks.
On the last day of the experiment, all animals (except for unplanned deaths) were fasted for 20 hours at the National Laboratory Animal Center and euthanized with pure carbon dioxide, followed by necropsy, organ weight (liver) and gross examination, including evaluation of liver and pancreas. Most lesions of animals were recorded at the time of final sacrifice, including scheduled euthanasia and unscheduled deaths. […]

Type 2 Diabetic Mice [3] = assay: Oral glucose tolerance test (OGTT), final week (16th week), high-fat-diet type 2 diabetic mice; type: in vivo, mice C57BL/6JNarl; settings: for average blood sugar at 120 minutes (OGTT): n=6, 120 minutes
Description: This experiment uses four-week-old male mice C57BL/6JNarl from National Laboratory Animal Center (Taipei, Taiwan), and they were bred with 12 hours of light/dark cycle under the environment of 23° C.±2° C. Mice were adapted to feed water and food arbitrarily every week, and after one week, they were fed in groups from the commercial feed 1320 (containing 11% fat) purchased from EJOY2 CORP. (New Taipei City, Taiwan) and D12451 (containing 45% high-fat feed) purchased from […] CO., LTD. (Taichung, Taiwan), induced for 12 weeks. During the experiment, the body weight of the mice and the fasting blood sugar value were measured every week and their changes were recorded. The mean±3SD of fasting blood sugar in mice was calculated. If the fasting blood sugar value exceeds the mean±3SD of the normal diet group, tube feeding administration would be started for 4 weeks, and blood sugar tolerance would be tested by tail vein blood collection in the last week of the experiment. […] Referring to FIGS. 1-2, they show the test results of oral glucose tolerance test (OGTT), respectively. Group A (NFD), Group B (NFD+5), Group C (NFD+20), Group D (HFD), Group E (HFD+5), Group F (HFD+10), Group G (HFD+20), Group H (Glibenclamide). NFD refers to normal fat diet, HFD refers to high fat diet, and Glibenclamide is an oral hypoglycemic drug that belongs to type 2 (non-insulin dependent) diabetic patients.

Structure (SMILES): COc1cc(C)c(OC)c2c1OCO2 [SY1, 4,7-dimethoxy-5-methyl-1,3-benzodioxole]
- effect on lowering LDL (Type 2 Diabetic Mice [1]): not much different from that of the Western medicine group; also recorded: better than HFD+10
- liver function index (AST, ALT in blood) (Type 2 Diabetic Mice [2]): this phenomenon was not seen
- hypoglycemic effect compared with other groups (OGTT) (Type 2 Diabetic Mice [3]; HFD+5 group (SY1 5 mg/kg) versus HFD+10, HFD+20 and Glibenclamide groups, 5 mg/kg): equivalent to that of the HFD+10 group; also recorded: more obvious than the high-dose HFD+20 and hypoglycemic drug Glibenclamide group
- average blood sugar at 120 minutes (OGTT) (Type 2 Diabetic Mice [3]; HFD+5 group (high fat diet, SY1 5 mg/kg, tube feeding 4 weeks)): 155.83
- effect on lowering blood sugar 30 minutes after feeding sugar water (OGTT) (Type 2 Diabetic Mice [3]; HFD+5 low-dose group (SY1 5 mg/kg)): obvious effect on lowering blood sugar
- average blood sugar at 120 minutes (OGTT) (Type 2 Diabetic Mice [3]; HFD+10 group (high fat diet, SY1 10 mg/kg, tube feeding 4 weeks)): 155.33
- effect on lowering blood sugar 30 minutes after feeding sugar water (OGTT) (Type 2 Diabetic Mice [3]; HFD+10 middle-dose group (SY1 10 mg/kg)): obvious effect on lowering blood sugar

Structure (SMILES): COc1ccc(Cl)cc1C(=O)NCCc1ccc(S(=O)(=O)NC(=O)NC2CCCCC2)cc1 [Glibenclamide, reference compound]
- liver function index (AST, ALT in blood) (Type 2 Diabetic Mice [2]): increased and reached a significant difference
- fasting blood sugar when no sugar water was fed (OGTT, 16th week) (Type 2 Diabetic Mice [3]; HFD, Glibenclamide 5 mg/kg, after 4 weeks of drug treatment): higher fasting blood sugar increase than any other group
- effect on lowering blood sugar in the later stage of treatment (Type 2 Diabetic Mice [3]; HFD, Glibenclamide 5 mg/kg, after 4 weeks of drug treatment, compared with SY1): worse than that of SY1
